This note sets out measurements from patent US4017540A, “Method of use, composition, and compounds” (The Upjohn Company, priority 1972, dated 1977).

Test [1] is described as follows: anorexigenic activity. Particulars: in vivo.
In test [2] the test system is insects and mites. The experiment in a line: insecticidal and miticidal activity (general). The conditions noted are these: in vivo.

Structures are written as SMILES.

On to `ClC(=NNc1c(Cl)cc(Cl)cc1Cl)c1ccc(Cl)cc1` [p-chlorobenzoyl chloride (2,4,6-trichlorophenyl)hydrazone], for which, in test [1], the anorexigenic activity result is reported as “anorexigenic activity”.
Still for that read-out and setting: the result for `ClC(=NNc1cc(Cl)ccc1Cl)c1ccccc1` [benzoyl chloride (2,5-dichlorophenyl)hydrazone] reads “have anorexigenic activity”.
Consider `O=[N+]([O-])c1ccc(NN=C(Cl)c2ccccc2)c([N+](=O)[O-])c1` [Benzoyl chloride (2,4-dinitrophenyl)hydrazone, reference compound], for which, in test [2], the “insecticidal and miticidal activity” value is “relatively inactive”.
